Laboratory results published in patent US7417150B2, “Azoles having an insecticidal action” (Bayer CropScience AG, priority 2001, dated 2008).

How the values were obtained:
[1] = test system: Adults of Ctenocephalides felis; assay: Test with cat fleas / oral uptake; format: in vivo; details: 100 ppm in citrated cattle blood, mortality after 24 h, strain "Georgi", at least 25% kill judged effective, read-out: % action (mortality of larvae)
Description: Test with Cat Fleas/Oral Uptake
To produce a suitable preparation, a suitable solution of active compound is prepared from 20 mg of active compound and 1 ml of DMSO. 20 μl of this formulation are added to 4 ml of citrated cattle blood and stirred.
20 unfed adult fleas (Ctenocephalides felis, strain “Georgi”) are placed into a chamber (Ø 5 cm) whose top and bottom are closed with gauze. A metal cylinder whose underside is covered with parafilm is placed onto the chamber. The cylinder contains the 4 ml of blood/active compound formulation which can be taken up by the fleas through the parafilm membrane. Whereas the blood is warmed to 37° C., the temperature in the area of the flea chambers is adjusted to 25° C. Controls are mixed with the same volume of DMSO, without addition of a compound. The determinations are carried out triplicate.
After 24 h, the mortality in % is determined.
Compounds which effect an at least 25% kill of the fleas within 24 h are judged to be effective.

Meloidogyne incognita = assay: Meloidogyne test (nematicidal action, gall formation on lettuce roots); format: in vivo; details: 20 ppm active compound; 100% = no galls found, 0% = galls as untreated control; lettuce in sand
Description: To produce a suitable preparation of active compound, 1 part by weight of active compound is mixed with the stated amounts of solvent and emulsifier, and the concentrate is diluted with water to the desired concentration.
Containers are filled with sand, solution of active compound, Meloidogyne incognita egg larvae suspension and lettuce seeds. The lettuce seeds germinate and the plants develop. On the roots, galls are formed.
After the desired period of time, the nematicidal action is determined in % using gall formation as a measure. 100% means that no galls were found; 0% means that the number of galls on the treated plants corresponds to that of the untreated control.

Structure (SMILES) | mortality at 100 ppm [1] [%] | Kill rate in % after 14 days (Meloidogyne incognita) [%]
CN(Cc1ccc(Cl)nc1)C1=N/C(=N/C#N)SC1 [Example I-1, 4-(N-(6-chloro-3-pyridylmethyl)-N-methyl)amino-2-cyanimino-2,5-dihydro-[1,3]-thiazoline] | 30 | 
CN(Cc1ccc(Cl)nc1)C1=N/C(=N/C#N)SC1 [drawing 50] |  | 98
